These results are taken from PMC8151276, “An Integrated Approach toward NanoBRET Tracers for Analysis of GPCR Ligand Engagement” (Molecules, 2021).

Format in all cases: binding
One assay deals with T1, LTB4R2 (Homo sapiens, UniProt Q9NPC1).
T1 construct: purchased Promega (in-house HiBiT-GPCR construct library, NanoBRET)
T1 sequence (Q9NPC1 1-358): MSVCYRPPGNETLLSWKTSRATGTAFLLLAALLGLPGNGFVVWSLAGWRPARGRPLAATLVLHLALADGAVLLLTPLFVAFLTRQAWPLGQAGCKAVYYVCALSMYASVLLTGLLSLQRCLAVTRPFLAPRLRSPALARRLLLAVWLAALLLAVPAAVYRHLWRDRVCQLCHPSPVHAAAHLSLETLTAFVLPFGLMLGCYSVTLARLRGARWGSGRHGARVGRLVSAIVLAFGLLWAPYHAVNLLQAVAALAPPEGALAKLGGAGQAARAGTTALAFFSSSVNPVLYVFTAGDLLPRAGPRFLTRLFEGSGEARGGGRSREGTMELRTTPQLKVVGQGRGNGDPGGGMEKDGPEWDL
Description: NanoBRET screen HiBiT-LTB4R2 in HEK293. The protocol: (§1) Each tracer candidate was screened across the entire library of HiBiT-GPCR constructs using NanoBRET as the detection modality. As depicted in Figure 4A, the specificity of interactions was evaluated through decrease in BRET due to competitive displacement of a bound tracer by excess parental compound. Each tracer was analyzed for binding to each HiBiT-GPCR fusion in the absence and in the presence of competing parental compound. Briefly, HEK293 cells were transfected with HiBiT-GPCR constructs diluted into promoterless DNA to reduce expression and maximize translocation to the cell surface. Each tracer candidate was then screened at concentrations of 1 μM and 0.1 μM across cells expressing these fusions. Cells were treated for 1.5 h with tracer either alone or in the presence of 20 μM competing parental compound (i.e., control). BRET was measured upon addition of purified LgBiT and subsequent complementation with HiBiT genetically fused to a GPCR. The specificity of interactions was assessed through a decrease in BRET signal due to competitive displacement of the bound tracer. To further gauge the robustness of these interactions, the fold response over the control (i.e., BRETtracer/BRETcontrol) was calculated. We chose a 1.5-fold response, which translates to ≥7-fold signal over noise as the minimal threshold required to score an interaction as positive. […]. Below we highlight the screening results obtained for our exemplary fluorescent tracers based on Clozapine, Amitriptyline and AZD1283.
(§2) HiBiT-GPCR DNA constructs were diluted in 10 mM Tris pH 8 to a final concentration of 0.01 μg/μL, arrayed in 96-well plates and stored at −20 °C. For transfection, HEK293 cells were suspended in Opti-MEM (without phenol red) supplemented with 2% fetal bovine serum (Seradigm) and 100 units/mL penicillin–streptomycin (Gibco) at a final concentration of 220,000 cells/mL and dispensed into white 96-well plates at 90 μL/well. Subsequent transfections and screens were carried using an Agilent Bravo Automated Liquid Handling Platform. First, the 96-well HiBiT DNA arrays were diluted 25-fold in Opti-MEM (without serum or phenol red) to a final concentration of 0.0004 μg/μL and 20 μL of the diluted DNAs were transferred into new 96-well plates. Next, promoterless carrier DNA (1 μg/μL) was diluted 25-fold (0.04 μg/μL) and then dispensed into the diluted arrays at 20 μL/well. Following brief mixing, Viafect transfection reagent (Promega) diluted 16-fold into Opti-MEM was dispensed into the plates at 40 μL/well. After mixing by pipetting, plates were incubated for 10 min on the pipetting station deck. The DNA-transfection reagent complexes were then added to plates containing cells. To facilitate the screen, 10 μL of DNA-transfection reagent complexes were added in duplicates to the top 4 and bottom 4 rows, resulting in two identical 48-well arrays per plate. Plates with transfected cells were incubated for 18–20 h at 37 °C/5% CO2. A screen of each tracer across the entire library using two different concentrations requires duplicate plates of transfected cells. Depending on the number of tracers being screened, transfections can be scaled up using the same ratios. The next day, for each tracer, four 20× screening solutions in tracer dilution buffer (Promega) were prepared: two duplicates at final concentration of 20 μM and two duplicates at a final concentration of 2 μM. A competing unmodified compound was added to one of each duplicate at a final concentration of 400 μM. The four resulting solutions were diluted 4-fold in Opti-MEM without serum or phenol red to generate 5× solutions (5 µM and 0.5 µM tracer +/− 100 μM competing compound). To screen the library, a BioTek MultiFlo FX liquid dispenser was used to dispense 22.5 µL of tracer solution to the top 4 rows and 22.5 µL tracer + competing compound solution to the 4 bottom rows. Plates were briefly mixed on an orbital shaker and incubated for 1.5 h at room temperature. […]
Background: In BRET a luciferase serves as donor, and the signal depends on an acceptor being close.

For another assay, the target named is T2, ADRA2C (Homo sapiens, UniProt P18825).
T2 construct: purchased Promega (in-house HiBiT-GPCR construct library, NanoBRET)
T2 sequence (P18825 1-462): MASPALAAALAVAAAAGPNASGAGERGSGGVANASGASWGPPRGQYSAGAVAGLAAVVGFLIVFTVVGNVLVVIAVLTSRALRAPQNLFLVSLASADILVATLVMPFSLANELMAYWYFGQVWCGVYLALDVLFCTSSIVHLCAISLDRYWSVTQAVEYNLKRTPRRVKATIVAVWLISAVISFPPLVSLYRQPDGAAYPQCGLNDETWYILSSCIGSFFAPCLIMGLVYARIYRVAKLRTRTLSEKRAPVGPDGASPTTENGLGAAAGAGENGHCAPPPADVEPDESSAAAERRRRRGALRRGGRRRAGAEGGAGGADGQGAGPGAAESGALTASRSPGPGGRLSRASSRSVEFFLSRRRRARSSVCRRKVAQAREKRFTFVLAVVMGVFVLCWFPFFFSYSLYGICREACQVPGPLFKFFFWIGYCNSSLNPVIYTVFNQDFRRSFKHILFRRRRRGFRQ
The experiment in a line: NanoBRET screen HiBiT-ADRA2C in HEK293. As for the experimental part:
as §1, §2

The next assay deals with T3, F2R (Homo sapiens, UniProt P25116).
T3 construct: purchased Promega (in-house HiBiT-GPCR construct library, NanoBRET)
T3 sequence (P25116 22-425): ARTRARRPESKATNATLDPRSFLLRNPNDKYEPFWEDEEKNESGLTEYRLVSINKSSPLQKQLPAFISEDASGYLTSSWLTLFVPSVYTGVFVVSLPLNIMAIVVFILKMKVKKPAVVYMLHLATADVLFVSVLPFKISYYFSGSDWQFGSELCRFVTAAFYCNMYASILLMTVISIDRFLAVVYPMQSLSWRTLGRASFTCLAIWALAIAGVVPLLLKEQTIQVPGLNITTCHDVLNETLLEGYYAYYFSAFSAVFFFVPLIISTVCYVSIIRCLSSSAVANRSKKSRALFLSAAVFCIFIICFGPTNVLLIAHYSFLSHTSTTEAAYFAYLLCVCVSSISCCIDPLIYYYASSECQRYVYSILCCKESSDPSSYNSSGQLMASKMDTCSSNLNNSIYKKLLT
The experiment in a line: NanoBRET screen HiBiT-F2R in HEK293. As for the experimental part: as §1, §2

As to `O=C(CCOCCOCCOCCOCCNC(=O)CCc1ccc2n1[B-](F)(F)[N+]1=C(c3ccc[nH]3)C=CC1=C2)NCCCN1CCN(C2=Nc3ccccc3Oc3ccc(Cl)cc32)CC1` [Loxapine-a-2-NB590], the “NanoBRET Fold Response” value on LTB4R2 (LTB4R2, tracer 0.1μM) was 0.90; on LTB4R2 (LTB4R2, tracer 1μM), 0.95; on ADRA2C (ADRA2C, tracer 0.1μM) it was 1.13; on ADRA2C (ADRA2C, tracer 1μM), 1.54; on F2R (F2R, tracer 0.1μM), 0.97; on F2R (F2R, tracer 1μM), 1.05.
Take `CCCn1c(=O)c2[nH]c(-c3ccc(OCC(=O)NCCNC(=O)CCOCCNC(=O)c4ccc(CNC(=O)CCc5ccc6n5[B-](F)(F)[N+]5=C(c7ccc[nH]7)C=CC5=C6)cc4)cc3)nc2n(CCC)c1=O` [XAC-3-NB590]: the “NanoBRET Fold Response” value at LTB4R2 (LTB4R2, tracer 0.1μM) is given as 0.93; at LTB4R2 (LTB4R2, tracer 1μM) it was 0.98; on ADRA2C (ADRA2C, tracer 0.1μM), 0.77; on ADRA2C (ADRA2C, tracer 1μM) it was 1.20; on F2R (F2R, tracer 0.1μM), 1.20; on F2R (F2R, tracer 1μM), 0.80.
Regarding `CN(C)CCC=C1c2ccccc2CCc2ccc(C(=O)NCCNC(=O)CCOCCOCCOCCOCCNC(=O)CCc3ccc4n3[B-](F)(F)[N+]3=C(c5ccc[nH]5)C=CC3=C4)cc21` [Amitriptyline-a-2-NB590], the “NanoBRET Fold Response” value on LTB4R2 (tracer at 0.1μM) is reported as 0.97; on LTB4R2 (tracer at 1μM), 1.08; on ADRA2C (tracer at 1μM) it was 1.37; on F2R (tracer at 0.1μM) it was 0.94; on F2R (tracer at 1μM), 0.98.
In the case of `COc1ccccc1N1CCN(CCCCN2C(=O)c3ccc(CNC(=O)CCOCCOCCOCCOCCNC(=O)CCc4ccc5n4[B-](F)(F)[N+]4=C(c6ccc[nH]6)C=CC4=C5)cc3C2=O)CC1` [NAN-190-2-NB590], the “NanoBRET Fold Response” value at LTB4R2 (LTB4R2, tracer 0.1μM) was 0.95; at LTB4R2 (LTB4R2, tracer 1μM) it was 1.05; on ADRA2C (ADRA2C, tracer 0.1μM), 1.22; at ADRA2C (ADRA2C, tracer 1μM), 0.89; on F2R (F2R, tracer 0.1μM) it was 1.07; at F2R (F2R, tracer 1μM), 0.93.
Regarding `O=C(CCc1ccc2n1[B-](F)(F)[N+]1=C(c3ccc[nH]3)C=CC1=C2)NCc1ccc(C(=O)NCCOCCOCCNCC(O)COc2cccc3ccccc23)cc1` (stereo not drawn) [Propranolol-3-NB590], the “NanoBRET Fold Response” value on LTB4R2 (LTB4R2, 0.1μM) worked out at 1.01; on LTB4R2 (LTB4R2, 1μM), 0.96; at ADRA2C (ADRA2C, 0.1μM), 0.95; on ADRA2C (ADRA2C, 1μM) it was 1.05; at F2R (F2R, 0.1μM), 1.04; at F2R (F2R, 1μM), 1.06.
Take `COc1ccccc1N1CCN(CCCCN2C(=O)c3ccc(CNC(=O)CCOCCNC(=O)c4ccc(CNC(=O)CCc5ccc6n5[B-](F)(F)[N+]5=C(c7ccc[nH]7)C=CC5=C6)cc4)cc3C2=O)CC1` [NAN-190-3-NB590]: the “NanoBRET Fold Response” value amounted to 0.76 on LTB4R2 (LTB4R2, tracer 0.1μM); 1.30 at LTB4R2 (LTB4R2, tracer 1μM); 1.56 at ADRA2C (ADRA2C, tracer 0.1μM); 1.33 on ADRA2C (ADRA2C, tracer 1μM); 0.97 at F2R (F2R, tracer 0.1μM); 1.11 on F2R (F2R, tracer 1μM).
Turning to `O=C(CCc1ccc2n1[B-](F)(F)[N+]1=C(c3ccc[nH]3)C=CC1=C2)NCc1ccc(C(=O)NCCOCCC(=O)N[C@@H]2CC[C@@]3(O)[C@H]4Cc5ccc(O)c6c5[C@@]3(CCN4CC3CC3)[C@H]2O6)cc1` [Naltrexone-3-NB590], the “NanoBRET Fold Response” value stood at 0.89 at LTB4R2 (LTB4R2, tracer 0.1μM); 1.36 at LTB4R2 (LTB4R2, tracer 1μM); 0.99 at ADRA2C (ADRA2C, tracer 0.1μM); 1.05 on ADRA2C (ADRA2C, tracer 1μM); 1.02 on F2R (F2R, tracer 0.1μM); 0.99 on F2R (F2R, tracer 1μM).
In the case of `CCOC(=O)c1cc(C#N)c(N2CCC(C(=O)NS(=O)(=O)Cc3ccccc3/C=C/C(=O)NCCNC(=O)CCc3ccc4n3[B-](F)(F)[N+]3=C(c5ccc[nH]5)C=CC3=C4)CC2)nc1C` [AZD1283-1-NB590], the “NanoBRET Fold Response” value on LTB4R2 (LTB4R2, 0.1μM) was 1.17; at LTB4R2 (LTB4R2, 1μM), 1.18; on ADRA2C (ADRA2C, 0.1μM), 1.05; at ADRA2C (ADRA2C, 1μM), 1.04; on F2R (F2R, 0.1μM) it was 1.01; on F2R (F2R, 1μM) it was 1.01.
As for `COc1ccc2[nH]c(-c3ccc(CNC(=O)CCOCCOCCOCCOCCNC(=O)CCc4ccc5n4[B-](F)(F)[N+]4=C(c6ccc[nH]6)C=CC4=C5)cc3)c(CCNC(C)=O)c2n1` [AzomelatoninICO9-2-NB590], the “NanoBRET Fold Response” value on LTB4R2 (0.1μM tracer) stood at 1.38; at LTB4R2 (1μM tracer), 0.99; on ADRA2C (0.1μM tracer), 1.08; at ADRA2C (1μM tracer), 1.17; at F2R (0.1μM tracer), 1.38; at F2R (1μM tracer), 0.84.
With `CN(CCC=C1c2ccccc2CCc2ccccc21)C(=O)CCOCCOCCOCCOCCNC(=O)CCc1ccc2n1[B-](F)(F)[N+]1=C(c3ccc[nH]3)C=CC1=C2` [Amitriptyline-e-2-NB590], the “NanoBRET Fold Response” value came out at 1.06 on LTB4R2 (tracer at 1μM) and 1.00 at ADRA2C (tracer at 1μM).
Consider `N#CN/C(=N\CCNC(=O)c1ccc(N)cc1)NCCCOc1cccc(CN2CCCCC2)c1` [Aminopotentidine (unmodified)], for which the “NanoBRET Fold Response” value is 1.06 on ADRA2C (ADRA2C, other tracers/Aminopotentidine (unmodified), 0.1μM) and 1.11 at ADRA2C (ADRA2C, other tracers/Aminopotentidine (unmodified), 1μM).
